Drawing on the supplement of paper PMC10307832, this text covers relative viability for 1 cell line.

Common to all, as to assay: relative viability (nuclei count vs DMSO), 5 days (fraction); higher = more cells survive
Compound in one test: CCOC1=CC=CC=C1N=NC2=C(NN(C2=O)C3=NC(=CS3)C4=CC=CC=C4)C [BAM7]
Summed up: (§1)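 Following overnight incubation at 37 °C, lung cancer cell lines in 1536-well plates were pinned with five library-drug doses (not always all listed) in √10 steps on vehicle-anchored plates. The cells then spent 5 days without medium change before a combined fix, permeabilisation and Hoechst stain, 4× imaging and MetaXpress nuclear counts. Viability is the treated-to-vehicle ratio of nuclei, taken as the median across plates. Only plates with control CV below 25% and at least one doubling passed.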

Compound in test [1]: CCn1c(-c2nonc2N)nc2c(C#CC(C)(C)O)ncc(OC[C@H]3CCCNC3)c21
Summed up: as §1

Compound in the test “BAM7 + Foretinib”: CCOC1=CC=CC=C1N=NC2=C(NN(C2=O)C3=NC(=CS3)C4=CC=CC=C4)C [BAM7] + COc1cc2c(Oc3ccc(NC(=O)C4(C(=O)Nc5ccc(F)cc5)CC4)cc3F)ccnc2cc1OCCCN1CCOCC1 [Foretinib] (partner 0.25 µM)
The essentials: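 Nuclei were stained with Hoechst during a one-step fixation (final 0.05% Triton X-100, 1% formaldehyde, 1 ug/ml Hoechst) carried out 5 days after dosing, then counted on 4× images. The cells, lung cancer lines in 1536-well plates, had been dosed by pin tool the day after seeding with one drug alone or a fixed anchor-drug dose plus five library-drug doses (not always all listed) in √10 steps. Relative viability is the nuclei count in treated wells divided by that in vehicle wells, and each value is the median of duplicate plates.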

UMC-11: the relative viability was 1.01 with BAM7 (0.5 µM); 1.1 with BAM7 (5 µM); 1.06 with BAM7 (15.81 µM); 1.07 with BAM7 (50 µM); 0.955 in test [1] (0.01 µM); 1.02 in test [1] (0.03162 µM). Besides, the relative viability in test [1] (0.1 µM) came out at 0.957; in test [1] (0.3162 µM), 0.982; in test [1] (1 µM), 0.943; with BAM7 + Foretinib (first compound 0.5 µM) it was 1.03; with BAM7 + Foretinib (first compound 5 µM), 1.09; with BAM7 + Foretinib (first compound 15.81 µM) it was 1.13. For the same cell line, the relative viability with BAM7 + Foretinib (first compound 50 µM) was found to be 1.07.
